Laboratory results: ChEMBL document CHEMBL1687775, “Bioavailability and population pharmacokinetics of voriconazole in lung transplant recipients” (Antimicrob Agents Chemother, 2010)

Tests used:
Assay type in all cases: ADME, organism-based
[1] = Cmax in lung transplant recipient at 6 mg/kg, iv twice a day administered immediately post transplant as 2 hr infusion followed by 200 mg, po bid for 3 months by HPLC analysis; set-up: dose 6 mg/kg, route oral; conditions: human, in vivo
[2] = Cmax in lung transplant recipient at 6 mg/kg, iv twice a day administered immediately post transplant as 2 hr infusion; set-up: dose 6 mg/kg, route intravenous; conditions: human, in vivo
[3] = Tmax in lung transplant recipient at 6 mg/kg, iv twice a day administered immediately post transplant as 2 hr infusion followed by 200 mg, po bid for 3 months by HPLC analysis; set-up: dose 6 mg/kg, route oral; conditions: human, in vivo
[4] = Plasma concentration in lung transplant recipient at 6 mg/kg, iv twice a day administered immediately post transplant as 2 hr infusion followed by 200 mg, po bid for 3 months by HPLC analysis; set-up: dose 6 mg/kg, route oral; conditions: human

Compound `C[C@@H](c1ncncc1F)[C@](O)(Cn1cncn1)c1ccc(F)cc1F` [VORICONAZOLE] has a Cmax [1] of 5900 ng/mL, a Cmax [2] of 3600 ng/mL and a Tmax [3] of 1.9 h. It also gave a concentration at 2 h [4] of 1000 ng/mL.
